Laboratory results taken from patent US20160209428A1, “DIAGNOSTIC AND PREDICTIVE METABOLITE PATTERNS FOR DISORDERS AFFECTING THE BRAIN AND NERVOUS SYSTEM” (THE REGENTS OF THE UNIVERSITY OF CALIFORNIA, priority 2013, published 2016).

Key:
[1] = tested on: maternal immune activation (MIA) mouse model; assay: Social approach (social preference), MIA model; format: in vivo
Procedure: To initiate the MIA model, pregnant dams were given two intraperitoneal injections of Poly(I:C) (Potassium salt; Sigma-Aldrich, St. Louis, Mo., USA, Cat no. P9582; >99% pure; <1% mononucleotide content). These were quantified by UV spectrophotometry. One unit (U) of poly(IC) was defined as 1 absorbance unit at 260 nm. Typically, 1U=12 μg of RNA. 0.25U/g [3 mg kg^−1] of poly(IC) was given on E12.5 and 0.125U g^−1 (1.5 mg kg^−1) on E17.5 as previously described. Contemporaneous control pregnancies were produced by timed matings and randomized assignment of pregnant dams to saline injection (5 μl g^−1 intraperitoneally (i.p.)) on E12.5 and E17.5.
Offspring of timed matings were weaned at 3-4 weeks of age into cages of two to four animals. No mice were housed in isolation. Only males were evaluated in these studies. Littermates were identified by ear tags and distributed into different cages in order to minimize litter and dam effects. To avoid chance differences in groups selected for single-dose treatment, the saline and poly(IC) exposure groups were each balanced according to their social approach scores at 2.25 months. […] Beginning 2 days later, behaviors were evaluated. […]
Social behavior in mice can be quantified as the time spent interacting with a novel (‘stranger’) mouse compared with the total time spent interacting with either a mouse or a novel inanimate object.

[2] = Suramin quantitation in plasma and brain tissues by LC-MS/MS; format: in vivo, mouse
Procedure: Offspring of timed matings were weaned at 3-4 weeks of age into cages of two to four animals. No mice were housed in isolation. Only males were evaluated in these studies. Littermates were identified by ear tags and distributed into different cages in order to minimize litter and dam effects. […] Beginning 2 days later, behaviors were evaluated.
Tissue samples (brainstem, cerebrum and cerebellum) were ground into powder under liquid nitrogen in a pre-cooled mortar. Powdered tissue (15-50 mg) was weighed and mixed with the internal standard trypan blue to a final concentration of 5 μM (pmol mg^−1) and incubated at room temperature for 10 min to permit metabolite interaction with binding proteins. Nine volumes of methanol:acetonitrile:H2O (43:43:16) pre-chilled to −20° C. was added to produce a final solvent ratio of 40:40:20, and the samples were deproteinated and macromolecules removed by precipitation on crushed ice for 30 min. The mixture was centrifuged at 16 000 g for 10 min at 4° C. and the supernatant was transferred to a new tube and kept at −80° C. for further LC-MS/MS (liquid chromatography-tandem mass spectrometry) analysis. For plasma, 90 μl was used, to which 10 μl of 50 μM stock of trypan blue was added to achieve an internal standard concentration of 5 μM. This was incubated at room temperature for 10 min to permit metabolite interaction with binding proteins, then extracted with 4 volumes (400 μl) of pre-chilled methanol:acetonitrile (50:50) to produce a final concentration of 40:40:20 (methanol:acetonitrile:H2O) and precipitated on ice for 10 min. Other steps were the same as for solid tissue extraction.
Ten microliters of extract were injected onto a Kinetix pentafluorophenyl column (150×2.1 mm, 2.6 μm; Phenomenex, Torrance, Calif., USA) held at 30° C. for chromatographic separation. The mobile phase A was water with 20 mM ammonium acetate (NH4OAC; pH 7) and mobile phase B was methanol with 20 mM NH4OAC (pH 7). […] The flow rate was 300 μl min^−1. All the samples were kept at 4° C. during analysis. […] The electrospray ionization source parameters were set as follows: source temperature 500° C.; curtain gas 30; ion source gas 1, 35; ion source gas 2 35; spray voltage −4500V. Analyst 1.6.1 was used for data acquisition and analysis. N=4-6 per tissue. Results are reported as means±s.e.m. in absolute μM (pmol μl^−1) concentration for plasma, and pmol mg^−1 wet weight for tissues.
After completing the behavioral studies described above, mass spectrometry was used to measure drug levels in plasma, cerebrum, cerebellum and brainstem following a 5-week period of drug washout.

[3] = 2 days after 20 mg kg^−1 i.p., control (Sal-Sur) or MIA (PIC-Sur) animals

Cc1ccc(C(=O)Nc2ccc(S(=O)(=O)O)c3cc(S(=O)(=O)O)cc(S(=O)(=O)O)c23)cc1NC(=O)c1cccc(NC(=O)Nc2cccc(C(=O)Nc3cc(C(=O)Nc4ccc(S(=O)(=O)O)c5cc(S(=O)(=O)O)cc(S(=O)(=O)O)c45)ccc3C)c2)c1 [Suramin, suramin]
social abnormalities ([1]; 6.5-month-old MIA adults, single dose suramin 20 mg kg^−1 i.p.): completely reversed
social behavior five weeks after suramin washout ([1]; MIA animals, 5 weeks after single dose): small residual benefit
brainstem suramin ([2]; 2 days after 20 mg kg^−1 i.p.): 5.15 pmol/mg
suramin in cerebellum [2, 3]: < 0.10 pmol mg^−1 wet weight
suramin in cerebrum [2, 3]: < 0.10 pmol mg^−1 wet weight
suramin in any tissue (plasma, cerebrum, cerebellum, brainstem) ([2]; after 5 weeks of drug washout): No suramin was detected
concentration at 2 days ([2]; male, mouse, plasma, ip, 2 days after 20 mg kg^−1 i.p.): 7.64 µM
